# Experimental data as given in patent publication US8338465B2, “Cyclic carboxylic acid rhodanine derivatives for the treatment and prevention of tuberculosis” (priority 2006, dated 2012).
# Molecular target: T1, dihydrolipoamide acyltransferase (DlaT) (Mycobacterium tuberculosis, UniProt P9WIS7)
# T1 sequence (P9WIS7 1-553): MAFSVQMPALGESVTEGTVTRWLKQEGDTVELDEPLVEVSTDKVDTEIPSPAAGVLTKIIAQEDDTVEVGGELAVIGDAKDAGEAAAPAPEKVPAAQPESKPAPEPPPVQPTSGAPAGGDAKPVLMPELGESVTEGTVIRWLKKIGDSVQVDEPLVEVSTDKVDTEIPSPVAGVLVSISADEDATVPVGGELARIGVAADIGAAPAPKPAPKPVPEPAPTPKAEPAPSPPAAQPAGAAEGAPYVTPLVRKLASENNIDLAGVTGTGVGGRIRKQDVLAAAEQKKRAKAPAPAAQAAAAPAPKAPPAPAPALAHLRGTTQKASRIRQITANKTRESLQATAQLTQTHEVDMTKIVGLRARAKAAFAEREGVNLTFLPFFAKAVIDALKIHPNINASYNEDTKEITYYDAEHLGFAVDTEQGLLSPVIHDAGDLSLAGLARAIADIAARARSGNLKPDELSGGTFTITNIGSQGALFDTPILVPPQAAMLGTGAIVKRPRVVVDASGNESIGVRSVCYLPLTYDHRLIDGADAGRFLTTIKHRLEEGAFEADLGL
# Test: DlaT inhibition (Dlat IC50); DTNB peroxidase assay with Lpd, DlaT and AhpD
# Assay type: biochemical
# Conditions: Dlat IC50 category
row,Compound,IC50
1,"Cc1ccc(-c2cccc(C=C3SC(=S)N(C4CCCC(C(=O)O)C4)C3=O)c2)cc1 (stereo not shown) [Compound C68, 3-{5-[1-(4′-methyl-biphenyl-3-yl)-methylidene]-4-oxo-2-thioxo-thiazolidin-3-yl}cyclohexanecarboxylic acid]",41 to 80 µM
2,"Cc1ccc(-c2cccc(C=C3SC(=S)N(C4CCC(C(=O)O)CC4)C3=O)c2)cc1 (stereo not shown) [Compound C69, 4-{5-[1-(4′-methyl-biphenyl-3-yl)-methylidene]-4-oxo-2-thioxo-thiazolidin-3-yl}-cyclohexanecarboxylic acid]",< 10 µM
3,"O=C(O)C1CCCC(N2C(=O)C(=Cc3ccc(-c4ccccc4-c4ccccc4)o3)SC2=S)C1 (stereo not shown) [Compound C70, 3-{5-[1-(5-biphenyl-2-yl-furan-2-yl)-methylidene]-4-oxo-2-thioxo-thiazolidin-3-yl}-cyclohexanecarboxylic acid]",< 10 µM
4,"O=C(O)C1CCC(N2C(=O)C(=Cc3ccc(-c4ccccc4-c4ccccc4)o3)SC2=S)CC1 (stereo not shown) [Compound C71, 4-{5-[1-(5-biphenyl-2-yl-furan-2-yl)-methylidene]-4-oxo-2-thioxo-thiazolidin-3-yl}-cyclohexanecarboxylic acid]",< 10 µM
5,"Cc1ccc(-c2ccc(C=C3SC(=S)N(C4CCCC(C(=O)O)C4)C3=O)cc2)cc1 (stereo not shown) [Compound C72, 3-{5-[1-(4′-methyl-biphenyl-4-yl)-methylidene]-4-oxo-2-thioxo-thiazolidin-3-yl}-cyclohexanecarboxylic acid]",< 10 µM
6,"Cc1ccc(-c2ccc(C=C3SC(=S)N(C4CCC(C(=O)O)CC4)C3=O)cc2)cc1 (stereo not shown) [Compound C73, 4-{5-[1-(4′-methyl-biphenyl-4-yl)-methylidene]-4-oxo-2-thioxo-thiazolidin-3-yl}-cyclohexanecarboxylic acid]",< 10 µM
7,"COc1ccc(C)cc1-c1ccc(C=C2SC(=S)N(C3CCCC(C(=O)O)C3)C2=O)o1 (stereo not shown) [Compound C74, 3-{5-[5-(2-Methoxy-5-methyl-phenyl)-furan-2-ylmethylene]-4-oxo-2-thioxo-thiazolidin-3-yl}-cyclohexanecarboxylic acid]",11 to 40 µM
8,"COc1ccc(C)cc1-c1ccc(C=C2SC(=S)N(C3CCC(C(=O)O)CC3)C2=O)o1 (stereo not shown) [Compound C75, 4-{5-[5-(2-Methoxy-5-methyl-phenyl)-furan-2-ylmethylene]-4-oxo-2-thioxo-thiazolidin-3-yl}-cyclohexanecarboxylic acid]",11 to 40 µM
9,"CC(=O)Nc1ccc(-c2ccc(C=C3SC(=S)N(C4CCC(C(=O)O)CC4)C3=O)o2)cc1 (stereo not shown) [Compound C76, 4-{5-[1-[5-(4-acetylamino-phenyl)-furan-2-yl]-methylidene]-4-oxo-2-thioxo-thiazolidin-3-yl}-cyclohexanecarboxylic acid]",< 10 µM
10,"CCCCc1ccc(-c2ccc(C=C3SC(=S)N(C4CCCC(C(=O)O)C4)C3=O)o2)cc1 (stereo not shown) [Compound C77, 3-{5-[1-[5-(4-butyl-phenyl)-furan-2-yl]-methylidene]-4-oxo-2-thioxo-thiazolidin-3-yl}-cyclohexanecarboxylic acid]",< 10 µM
11,"CCCCc1ccc(-c2ccc(C=C3SC(=S)N(C4CCC(C(=O)O)CC4)C3=O)o2)cc1 (stereo not shown) [Compound C78, 4-{5-[1-[5-(4-butyl-phenyl)-furan-2-yl]-methylidene]-4-oxo-2-thioxo-thiazolidin-3-yl}-cyclohexanecarboxylic acid]",< 10 µM
12,"CCCc1ccc(-c2ccc(C=C3SC(=S)N(C4CCCC(C(=O)O)C4)C3=O)o2)cc1 (stereo not shown) [Compound C79, 3-{5-[1-[5-(4-propyl-phenyl)-furan-2-yl]-methylidene]-4-oxo-2-thioxo-thiazolidin-3-yl}-cyclohexanecarboxylic acid]",11 to 40 µM
13,"CCCc1ccc(-c2ccc(C=C3SC(=S)N(C4CCC(C(=O)O)CC4)C3=O)o2)cc1 (stereo not shown) [Compound C80, 4-{5-[1-[5-(4-propyl-phenyl)-furan-2-yl]-methylidene]-4-oxo-2-thioxo-thiazolidin-3-yl}-cyclohexanecarboxylic acid]",11 to 40 µM
